Results: patent US9758524B2, “4-imidazopyridazin-1-yl-benzamides as Btk inhibitors” (Merck Sharp & Dohme B.V., priority 2011, dated 2017)
pEC50: −log10 of the molar value. Read-outs that look alike come from different tables or passages of the source.

Tests used:
Btk enzyme (His-Btk) = Btk enzyme (His-Btk) (Homo sapiens (Human), UniProt Q06187); assay: Btk enzyme activity (IMAP fluorescence polarization assay); conditions: for EC50: read-out: EC50 Btk activity values; for EC50 / EC50 Btk activity values: IMAP, 60 min pre-incubation, 5 μM ATP, bin bound in nM
Lyn enzyme = Lyn enzyme (Homo sapiens (Human), UniProt P07948); assay: Lyn enzyme activity (IMAP fluorescence polarization assay)
Lck enzyme = Lck enzyme (Homo sapiens (Human), UniProt P06239); assay: Lck enzyme activity (IMAP fluorescence polarization assay); conditions: for EC50: read-out: EC50 Lck activity values, IMAP, 60 min pre-incubation, 6 μM ATP, bin bound in μM
FynT enzyme = FynT enzyme (Homo sapiens (Human), UniProt P06241); assay: FynT enzyme activity (IMAP fluorescence polarization assay); assay type: biochemical; conditions: 60 min pre-incubation, 0.2 μM ATP
Method: FynT enzyme activity is measured using the IMAP (immobilized metal ion affinity-based fluorescence polarization) assay as outlined below.
Test compounds and FynT enzyme are pre-incubated 60 minutes at room temperature, before adding 5 μL/well of 400 nM Fluorescin labeled substrate peptide (p34cdc2 substrate peptide, e.g. #R7157/#R7172, Molecular Devices) in KR-buffer. Final peptide substrate concentration in assay is 100 nM. […] Following incubation for 2 h at room temperature the enzyme reaction is stopped by adding 40 μL/well IMAP Progressive Binding Solution (according to suppliers (Molecular Devices) protocol using 75% 1× buffer A and 25% 1× buffer B with 1:600 Progressive Binding Solution). After 60 min incubation at room temperature in the dark the FP signal is read. […] Values are calculated as percentage of the difference in readout (ΔmPi) of the controls with and without ATP. EC50 values are determined by curve fitting of the experimental results using Activity Base.

Src enzyme = Src enzyme (Homo sapiens (Human), UniProt P12931); assay: Src enzyme activity (IMAP fluorescence polarization assay)
[1] = read-out: EC50 Lyn activity values, 60 min pre-incubation, 2 μM ATP, bin bound in μM
[2] = read-out: EC50 Src activity values, IMAP, 60 min pre-incubation, 4 μM ATP
[3] = EC50 Lyn activity values, 60 min pre-incubation, 2 μM ATP, bin bound in μM

Btk enzyme (His-Btk), sequence (Q06187 whole entry): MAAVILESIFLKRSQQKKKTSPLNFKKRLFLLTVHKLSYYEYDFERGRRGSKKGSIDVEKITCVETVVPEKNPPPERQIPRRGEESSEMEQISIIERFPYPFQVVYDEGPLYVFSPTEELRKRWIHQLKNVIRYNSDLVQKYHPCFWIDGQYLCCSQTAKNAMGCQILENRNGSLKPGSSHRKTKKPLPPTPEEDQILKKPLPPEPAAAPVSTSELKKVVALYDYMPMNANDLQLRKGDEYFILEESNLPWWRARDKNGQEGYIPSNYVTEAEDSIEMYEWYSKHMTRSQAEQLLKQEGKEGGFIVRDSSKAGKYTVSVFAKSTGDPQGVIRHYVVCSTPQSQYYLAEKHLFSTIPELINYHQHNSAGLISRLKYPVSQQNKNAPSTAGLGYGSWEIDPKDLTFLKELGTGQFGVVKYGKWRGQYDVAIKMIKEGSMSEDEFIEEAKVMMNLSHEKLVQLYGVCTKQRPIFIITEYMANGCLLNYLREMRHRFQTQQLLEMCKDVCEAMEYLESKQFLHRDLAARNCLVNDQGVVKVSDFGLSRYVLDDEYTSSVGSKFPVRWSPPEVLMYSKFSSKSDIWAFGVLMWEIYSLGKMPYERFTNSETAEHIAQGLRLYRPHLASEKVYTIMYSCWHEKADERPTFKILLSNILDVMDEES
Src enzyme, sequence (P12931 whole entry, looked up): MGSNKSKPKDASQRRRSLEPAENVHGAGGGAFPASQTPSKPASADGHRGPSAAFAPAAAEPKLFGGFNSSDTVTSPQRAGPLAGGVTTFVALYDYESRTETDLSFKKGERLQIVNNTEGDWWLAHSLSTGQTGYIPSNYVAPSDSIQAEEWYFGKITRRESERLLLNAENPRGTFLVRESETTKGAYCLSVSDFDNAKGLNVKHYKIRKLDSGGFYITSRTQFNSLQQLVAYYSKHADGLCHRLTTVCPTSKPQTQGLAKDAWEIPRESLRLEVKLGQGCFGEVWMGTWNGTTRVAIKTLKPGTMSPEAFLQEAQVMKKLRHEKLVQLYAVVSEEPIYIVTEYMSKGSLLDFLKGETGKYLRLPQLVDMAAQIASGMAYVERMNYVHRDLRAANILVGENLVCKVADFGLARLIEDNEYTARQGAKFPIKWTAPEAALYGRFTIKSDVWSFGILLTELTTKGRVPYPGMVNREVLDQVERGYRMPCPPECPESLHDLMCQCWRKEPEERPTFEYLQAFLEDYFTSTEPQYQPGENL
Lyn enzyme, sequence (P07948 whole entry): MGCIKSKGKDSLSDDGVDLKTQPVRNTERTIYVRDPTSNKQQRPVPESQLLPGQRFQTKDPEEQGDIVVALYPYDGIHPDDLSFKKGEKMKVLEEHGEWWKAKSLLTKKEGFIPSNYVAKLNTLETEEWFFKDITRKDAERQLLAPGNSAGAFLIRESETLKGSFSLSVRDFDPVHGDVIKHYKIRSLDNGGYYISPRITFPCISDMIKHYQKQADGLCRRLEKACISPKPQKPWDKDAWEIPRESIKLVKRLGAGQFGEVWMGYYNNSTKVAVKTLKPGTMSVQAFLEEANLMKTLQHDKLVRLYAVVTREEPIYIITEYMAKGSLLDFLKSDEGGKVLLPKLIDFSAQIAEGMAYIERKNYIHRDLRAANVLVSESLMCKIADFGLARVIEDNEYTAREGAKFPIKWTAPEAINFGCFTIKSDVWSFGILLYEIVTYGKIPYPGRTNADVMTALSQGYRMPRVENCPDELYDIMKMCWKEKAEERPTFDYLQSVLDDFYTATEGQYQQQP
Lck enzyme, sequence (P06239 whole entry): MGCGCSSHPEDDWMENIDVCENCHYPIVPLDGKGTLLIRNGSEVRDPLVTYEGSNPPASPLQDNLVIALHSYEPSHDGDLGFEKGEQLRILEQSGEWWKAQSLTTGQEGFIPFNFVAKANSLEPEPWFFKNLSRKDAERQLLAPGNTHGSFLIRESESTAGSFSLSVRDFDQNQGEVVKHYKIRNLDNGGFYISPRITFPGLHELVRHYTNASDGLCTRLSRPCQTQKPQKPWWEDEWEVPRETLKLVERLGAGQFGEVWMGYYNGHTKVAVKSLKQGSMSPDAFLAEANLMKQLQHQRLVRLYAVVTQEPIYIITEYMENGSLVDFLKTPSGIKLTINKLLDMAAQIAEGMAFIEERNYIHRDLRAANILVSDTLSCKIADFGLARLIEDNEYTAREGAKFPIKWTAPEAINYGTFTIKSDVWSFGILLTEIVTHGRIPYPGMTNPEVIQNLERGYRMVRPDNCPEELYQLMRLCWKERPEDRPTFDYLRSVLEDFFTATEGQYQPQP
FynT enzyme, sequence (P06241 other isoform, or with tags, fused parts or gaps): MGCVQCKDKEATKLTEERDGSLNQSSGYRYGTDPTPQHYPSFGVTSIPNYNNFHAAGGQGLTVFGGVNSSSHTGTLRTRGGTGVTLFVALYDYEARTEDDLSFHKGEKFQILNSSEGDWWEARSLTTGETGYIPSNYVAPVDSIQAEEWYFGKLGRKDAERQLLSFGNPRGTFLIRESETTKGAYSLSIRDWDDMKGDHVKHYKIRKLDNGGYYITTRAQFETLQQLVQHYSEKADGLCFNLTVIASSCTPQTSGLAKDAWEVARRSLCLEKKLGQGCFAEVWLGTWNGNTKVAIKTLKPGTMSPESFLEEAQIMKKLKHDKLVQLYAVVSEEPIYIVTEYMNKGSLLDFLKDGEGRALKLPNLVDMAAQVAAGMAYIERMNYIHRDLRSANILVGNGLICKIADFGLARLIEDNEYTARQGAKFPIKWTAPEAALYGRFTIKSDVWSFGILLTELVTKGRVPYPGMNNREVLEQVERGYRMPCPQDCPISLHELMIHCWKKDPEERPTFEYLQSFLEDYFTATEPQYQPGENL

SMILES | EC50 (Btk enzyme (His-Btk)) [nM] | EC50 (Lyn enzyme; [1]) [µM] | EC50 (Lck enzyme) [µM] | pEC50 (FynT enzyme) | pEC50 (Src enzyme; [2]) | pEC50 (Btk enzyme (His-Btk)) | EC50 Btk activity values (Btk enzyme (His-Btk)) [nM] | EC50 (Lyn enzyme; [3]) [µM] | pEC50 (Lck enzyme) | pEC50 (Src enzyme)
C=CC(=O)N1CCC[C@H]1c1nc(-c2ccc(C(=O)Nc3ccccn3)cc2)c2c(N)nccn12 [Example 1, (S)-4-(3-(1-Acryloylpyrrolidin-2-yl)-8-aminoimidazo[1,5-a]pyrazin-1-yl)-N-(pyridin-2-yl)benzamide] | < 10 | ≥ 1 | ≥ 1 | ≤ 6.00 | ≤ 6.00 |  |  |  |  | 
CN(C)C/C=C/C(=O)N1CCC[C@H]1c1nc(-c2ccc(C(=O)Nc3ccccn3)cc2)c2c(N)nccn12 [Example 3, (S,E)-4-(8-Amino-3-(1-(4-(dimethylamino)but-2-enoyl)pyrrolidin-2-yl)imidazo[1,5-a]pyrazin-1-yl)-N-(pyridin-2-yl)benzamide] | < 10 |  |  |  |  |  |  |  |  | 
COC/C=C/C(=O)N1CCC[C@H]1c1nc(-c2ccc(C(=O)Nc3ccccn3)cc2)c2c(N)nccn12 [Example 4, (S,E)-4-(8-amino-3-(1-(4-methoxybut-2-enoyl)pyrrolidin-2-yl)imidazo[1,5-a]pyrazin-1-yl)-N-(pyridin-2-yl)benzamide] |  | ≥ 1 | ≥ 1 | ≤ 6.00 | ≤ 6.00 | 7.00 to 8.00 | <100 |  |  | 
CC#CC(=O)N1CCC[C@H]1c1nc(-c2ccc(C(=O)Nc3ccccn3)cc2)c2c(N)nccn12 [Example 6, (S)-4-(8-amino-3-(1-but-2-ynoylpyrrolidin-2-yl)imidazo[1,5-a]pyrazin-1-yl)-N-(pyridin-2-yl)benzamide] |  |  |  | ≤ 6.00 |  |  |  | ≥ 1 | ≤ 6.00 | ≤ 6.00
CN(C)C/C=C/C(=O)N1CCC[C@H]1c1nc(-c2ccc(C(=O)Nc3cc(F)ccn3)cc2)c2c(N)nccn12 [Example 7, (S,E)-4-(8-Amino-3-(1-(4-(dimethylamino)but-2-enoyl)pyrrolidin-2-yl)imidazo[1,5-a]pyrazin-1-yl)-N-(4-fluoropyridin-2-yl)benzamide] |  | ≥ 1 | ≥ 1 | ≤ 6.00 | ≤ 6.00 | 7.00 to 8.00 | <100 |  |  | 
CC#CC(=O)N1CCC[C@H]1c1nc(-c2ccc(C(=O)Nc3cc(C)ccn3)cc2)c2c(N)nccn12 [Example 8, (S)-4-(8-Amino-3-(1-but-2-ynoylpyrrolidin-2-yl)imidazo[1,5-a]pyrazin-1-yl)-N-(4-methylpyridin-2-yl)benzamide] | < 10 | ≥ 1 | ≥ 1 | ≤ 6.00 | ≤ 6.00 |  |  |  |  | 
CC#CC(=O)N1CCC[C@H]1c1nc(-c2ccc(C(=O)Nc3cc(C(F)(F)F)ccn3)cc2)c2c(N)nccn12 [Example 10, (S)-4-(8-Amino-3-(1-but-2-ynoylpyrrolidin-2-yl)imidazo[1,5-a]pyrazin-1-yl)-N-(4-(trifluoromethyl)pyridin-2-yl)benzamide] | < 10 | ≥ 1 | ≥ 1 | ≤ 6.00 | ≤ 6.00 |  |  |  |  | 
C=CC(=O)N1CCC[C@H]1c1nc(-c2ccc(C(=O)Nc3ccccn3)c(F)c2)c2c(N)nccn12 [Example 13, (S)-4-(3-(1-acryloylpyrrolidin-2-yl)-8-aminoimidazo[1,5-a]pyrazin-1-yl)-2-fluoro-N-(pyridin-2-yl)benzamide] | < 10 | ≥ 1 | ≥ 1 | ≤ 6.00 | ≤ 6.00 |  |  |  |  | 
COC/C=C/C(=O)N1CCCC[C@H]1c1nc(-c2ccc(C(=O)Nc3ccccn3)cc2)c2c(N)nccn12 [Example 16, (S,E)-4-(8-Amino-3-(1-(4-methoxybut-2-enoyl)piperidin-2-yl)imidazo[1,5-a]pyrazin-1-yl)-N-(pyridin-2-yl)benzamide] | < 10 | ≥ 1 | ≥ 1 | ≤ 6.00 | ≤ 6.00 |  |  |  |  | 
C=CC(=O)N1CCCC[C@H]1c1nc(-c2ccc(C(=O)Nc3cc(C#N)ccn3)cc2)c2c(N)nccn12 [Example 18, (S)-4-(3-(1-Acryloylpiperidin-2-yl)-8-aminoimidazo[1,5-a]pyrazin-1-yl)-N-(4-cyanopyridin-2-yl)benzamide] | < 10 | ≥ 1 | ≥ 1 | ≤ 6.00 | ≤ 6.00 |  |  |  |  | 
C/C=C/C(=O)N1CCC[C@H]1c1nc(-c2ccc(C(=O)Nc3ccccn3)cc2)c2c(N)nccn12 [Example 93, (S,E)-4-(8-amino-3-(1-but-2-enoylpyrrolidin-2-yl)imidazo[1,5-a]pyrazin-1-yl)-N-(pyridin-2-yl)benzamide] |  | ≥ 1 |  | ≤ 6.00 | ≤ 6.00 |  |  |  | ≤ 6.00 | 

Now from value to compound, other results behind:

EC50 (Btk enzyme (His-Btk)) [nM] | EC50 (Lyn enzyme; [1]) [µM] | EC50 (Lck enzyme) [µM] | pEC50 (FynT enzyme) | pEC50 (Src enzyme; [2]) | pEC50 (Btk enzyme (His-Btk)) | EC50 Btk activity values (Btk enzyme (His-Btk)) [nM] | SMILES | EC50 (Lyn enzyme; [3]) [µM] | pEC50 (Lck enzyme) | pEC50 (Src enzyme)
 |  |  | ≤ 6.00 |  | 7.00 to 8.00 | <100 | Nc1nccn2c([C@@H]3CCCN3C(=O)/C=C/CN3CCCC3)nc(-c3ccc(C(=O)Nc4ccccn4)cc3)c12 [Example 2, (S,E)-4-(8-amino-3-(1-(4-(pyrrolidin-1-yl)but-2-enoyl)pyrrolidin-2-yl)imidazo[1,5-a]pyrazin-1-yl)-N-(pyridin-2-yl)benzamide] | ≥ 1 | ≤ 6.00 | ≤ 6.00
 | ≥ 1 | ≥ 1 | ≤ 6.00 | ≤ 6.00 | 7.00 to 8.00 | <100 | Nc1nccn2c([C@@H]3CCCN3C(=O)c3ccnc(Cl)n3)nc(-c3ccc(C(=O)Nc4ccccn4)cc3)c12 [Example 5, (S)-4-(8-amino-3-(1-(2-chloropyrimidine-4-carbonyl)pyrrolidin-2-yl)imidazo[1,5-a]pyrazin-1-yl)-N-(pyridin-2-yl)benzamide] |  |  | 
 | ≥ 1 | ≥ 1 | ≤ 6.00 | ≤ 6.00 | 7.00 to 8.00 | <100 | CCc1ccnc(NC(=O)c2ccc(-c3nc([C@@H]4CCCN4C(=O)/C=C/COC)n4ccnc(N)c34)cc2)c1 [Example 11, (S,E)-4-(8-Amino-3-(1-(4-methoxybut-2-enoyl)pyrrolidin-2-yl)imidazo[1,5-a]pyrazin-1-yl)-N-(4-ethylpyridin-2-yl)benzamide] |  |  | 
< 10 | ≥ 1 | ≥ 1 | ≤ 6.00 | ≤ 6.00 |  |  | CC#CC(=O)N1CCC[C@H]1c1nc(-c2ccc(C(=O)Nc3nc4c(s3)CCCC4)cc2)c2c(N)nccn12 [Example 12, (S)-4-(8-Amino-3-(1-but-2-ynoylpyrrolidin-2-yl)imidazo[1,5-a]pyrazin-1-yl)-N-(4,5,6,7-tetrahydrobenzo[d]thiazol-2-yl)benzamide] |  |  | 
< 10 | ≥ 1 | ≥ 1 | ≤ 6.00 | ≤ 6.00 |  |  | C=CC(=O)N1CCC[C@H]1c1nc(-c2ccc(C(=O)Nc3ccccn3)c(OC)c2)c2c(N)nccn12 [Example 14, (S)-4-(3-(1-Acryloylpyrrolidin-2-yl)-8-aminoimidazo[1,5-a]pyrazin-1-yl)-2-methoxy-N-(pyridin-2-yl)benzamide] |  |  | 
< 10 | ≥ 1 | ≥ 1 | ≤ 6.00 | ≤ 6.00 |  |  | CN(C)C/C=C/C(=O)N1CCC[C@H]1c1nc(-c2ccc(C(=O)Nc3nccs3)cc2)c2c(N)nccn12 [Example 15, (S,E)-4-(8-Amino-3-(1-(4-(dimethylamino)but-2-enoyl)pyrrolidin-2-yl)imidazo[1,5-a]pyrazin-1-yl)-N-(thiazol-2-yl)benzamide] |  |  | 
< 10 | ≥ 1 | ≥ 1 | ≤ 6.00 | ≤ 6.00 |  |  | C=CC(=O)N1CCCC[C@H]1c1nc(-c2ccc(C(=O)Nc3cc(F)ccn3)cc2)c2c(N)nccn12 [Example 17, (S)-4-(3-(1-Acryloylpiperidin-2-yl)-8-aminoimidazo[1,5-a]pyrazin-1-yl)-N-(4-fluoropyridin-2-yl)benzamide] |  |  | 
< 10 | ≥ 1 | ≥ 1 | ≤ 6.00 | ≤ 6.00 |  |  | C=CS(=O)(=O)N1CCCC[C@H]1c1nc(-c2ccc(C(=O)Nc3cc(C(F)(F)F)ccn3)cc2)c2c(N)nccn12 [Example 19, (S)-4-(8-Amino-3-(1-(vinylsulfonyl)piperidin-2-yl)imidazo[1,5-a]pyrazin-1-yl)-N-(4-(trifluoromethyl)pyridin-2-yl)benzamide] |  |  | 
 | ≥ 1 | ≥ 1 | ≤ 6.00 | ≤ 6.00 |  |  | CN(C)C/C=C/C(=O)N1CCC[C@H]1c1nc(-c2ccc(C(=O)Nc3ccccn3)cc2)c2c(N)nccn12 [Example 127, (S,E)-4-(8-amino-3-(1-(4-(dimethylamino)but-2-enoyl)pyrrolidin-2-yl)imidazo[1,5-a]pyrazin-1-yl)-N-(pyridin-2-yl)benzamide] |  |  | 
